Source: the supplement of paper PMC10307832

Experiments:
Experiment in all cases: relative viability (nuclei count vs DMSO), 5 days (fraction); higher = more cells survive
ABC-1 = system: ABC-1
Outline: (§1)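 Nuclei were stained with Hoechst during a one-step fixation (final 0.05% Triton X-100, 1% formaldehyde, 1 ug/ml Hoechst) carried out 5 days after dosing, then counted on 4× images. The cells, lung cancer lines in 1536-well plates, had been dosed by pin tool the day after seeding with one drug alone or a fixed anchor-drug dose plus five library-drug doses (not always all listed) in √10 steps. Relative viability is the nuclei count in treated wells divided by that in vehicle wells, and each value is the median of duplicate plates.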

COR-L23 = system: COR-L23
Outline: as §1

EPLC-272H = system: EPLC-272H
Outline: as §1

HARA = system: HARA
Outline: as §1

HCC-15 = system: HCC-15
Outline: as §1

HCC-78 = system: HCC-78
Outline: as §1

LC-2-ad = system: LC-2-ad
Outline: as §1

LU99A = system: LU99A
Outline: as §1

NCI-H1651 = system: NCI-H1651
Outline: as §1

NCI-H1915 = system: NCI-H1915
Outline: as §1

NCI-H1993 = system: NCI-H1993
Outline: as §1

NCI-H2009 = system: NCI-H2009
Outline: as §1

NCI-H2085 = system: NCI-H2085
Outline: as §1

NCI-H2126 = system: NCI-H2126
Outline: as §1

NCI-H2347 = system: NCI-H2347
Outline: as §1

NCI-H460 = system: NCI-H460
Outline: as §1

NCI-H650 = system: NCI-H650
Outline: as §1

NCI-H838 = system: NCI-H838
Outline: as §1

PC-14 = system: PC-14
Outline: as §1

SW 1573 = system: SW 1573
Outline: as §1

UMC-11 = system: UMC-11
Outline: as §1

Molecule `COc1cc(N2CCC(C(N)=O)CC2)ccc1Nc1nc(N)c(Cl)c(Nc2ccccc2S(=O)(=O)C(C)C)n1` [HG-5-88-01] + CC(C)C[C@H](NC(=O)[C@H](Cc1ccccc1)NC(=O)c1cnccn1)B(O)O [Bortezomib] (partner 0.002 µM) has a relative viability (ABC-1; first compound 0.04 µM) of 0.335, a relative viability (ABC-1; first compound 0.1265 µM) of 0.332 and a relative viability (ABC-1; first compound 0.4 µM) of 0.237. The relative viability (ABC-1; first compound 1.265 µM) was 0.321, the relative viability (ABC-1; first compound 4 µM) was 0.283 and the relative viability (COR-L23; first compound 0.04 µM) was 1.06. The relative viability (COR-L23; first compound 0.1265 µM) was 1.08, the relative viability (COR-L23; first compound 0.4 µM) was 0.854 and the relative viability (COR-L23; first compound 1.265 µM) was 0.91. The relative viability (COR-L23; first compound 4 µM) was 0.896, the relative viability (EPLC-272H; first compound 0.04 µM) was 0.854 and the relative viability (EPLC-272H; first compound 0.1265 µM) was 0.941. It also gave a relative viability (EPLC-272H; first compound 0.4 µM) of 1, a relative viability (EPLC-272H; first compound 1.265 µM) of 0.851 and a relative viability (EPLC-272H; first compound 4 µM) of 0.385. It also gave a relative viability (HARA; first compound 0.04 µM) of 1.16, a relative viability (HARA; first compound 0.1265 µM) of 1.03 and a relative viability (HARA; first compound 0.4 µM) of 1.07. The relative viability (HARA; first compound 1.265 µM) was 1.02, the relative viability (HARA; first compound 4 µM) was 1.02 and the relative viability (HCC-15; first compound 0.04 µM) was 1. It also gave a relative viability (HCC-15; first compound 0.1265 µM) of 1.09, a relative viability (HCC-15; first compound 0.4 µM) of 0.966 and a relative viability (HCC-15; first compound 1.265 µM) of 1.02. For the same molecule, the relative viability (HCC-15; first compound 4 µM) was 0.746, the relative viability (HCC-78; first compound 0.04 µM) was 0.467 and the relative viability (HCC-78; first compound 0.1265 µM) was 0.369. For the same molecule, the relative viability (HCC-78; first compound 0.4 µM) was 0.393, the relative viability (HCC-78; first compound 1.265 µM) was 0.218 and the relative viability (HCC-78; first compound 4 µM) was 0.211. For the same molecule, the relative viability (LC-2-ad; first compound 0.04 µM) was 1.06, the relative viability (LC-2-ad; first compound 0.1265 µM) was 1.04 and the relative viability (LC-2-ad; first compound 0.4 µM) was 0.945. It also gave a relative viability (LC-2-ad; first compound 1.265 µM) of 0.973, a relative viability (LC-2-ad; first compound 4 µM) of 0.819 and a relative viability (LU99A; first compound 0.04 µM) of 1.09. The relative viability (LU99A; first compound 0.1265 µM) was 1.15, the relative viability (LU99A; first compound 0.4 µM) was 1.03 and the relative viability (LU99A; first compound 1.265 µM) was 1.21. It also gave a relative viability (LU99A; first compound 4 µM) of 1.07, a relative viability (NCI-H1651; first compound 0.04 µM) of 0.844 and a relative viability (NCI-H1651; first compound 0.1265 µM) of 0.935. For the same molecule, the relative viability (NCI-H1651; first compound 0.4 µM) was 0.941, the relative viability (NCI-H1651; first compound 1.265 µM) was 0.976 and the relative viability (NCI-H1651; first compound 4 µM) was 1.03. For the same molecule, the relative viability (NCI-H1915; first compound 0.04 µM) was 0.977, the relative viability (NCI-H1915; first compound 0.1265 µM) was 0.941 and the relative viability (NCI-H1915; first compound 0.4 µM) was 0.941. The relative viability (NCI-H1915; first compound 1.265 µM) was 0.974, the relative viability (NCI-H1915; first compound 4 µM) was 0.621 and the relative viability (NCI-H1993; first compound 0.04 µM) was 1.08. For the same molecule, the relative viability (NCI-H1993; first compound 0.1265 µM) was 1.08, the relative viability (NCI-H1993; first compound 0.4 µM) was 0.971 and the relative viability (NCI-H1993; first compound 1.265 µM) was 0.819. For the same molecule, the relative viability (NCI-H1993; first compound 4 µM) was 1.02, the relative viability (NCI-H2009; first compound 0.04 µM) was 0.99 and the relative viability (NCI-H2009; first compound 0.1265 µM) was 1.19. It also gave a relative viability (NCI-H2009; first compound 0.4 µM) of 0.845, a relative viability (NCI-H2009; first compound 1.265 µM) of 0.986 and a relative viability (NCI-H2009; first compound 4 µM) of 0.765. It also gave a relative viability (NCI-H2085; first compound 0.04 µM) of 0.986, a relative viability (NCI-H2085; first compound 0.1265 µM) of 1.13 and a relative viability (NCI-H2085; first compound 0.4 µM) of 0.922. For the same molecule, the relative viability (NCI-H2085; first compound 1.265 µM) was 1.01, the relative viability (NCI-H2085; first compound 4 µM) was 0.917 and the relative viability (NCI-H2126; first compound 0.04 µM) was 1.16. For the same molecule, the relative viability (NCI-H2126; first compound 0.1265 µM) was 1.12, the relative viability (NCI-H2126; first compound 0.4 µM) was 1.13 and the relative viability (NCI-H2126; first compound 1.265 µM) was 1.15. It also gave a relative viability (NCI-H2126; first compound 4 µM) of 1.12, a relative viability (NCI-H2347; first compound 0.04 µM) of 0.954 and a relative viability (NCI-H2347; first compound 0.1265 µM) of 0.873. It also gave a relative viability (NCI-H2347; first compound 0.4 µM) of 1.01, a relative viability (NCI-H2347; first compound 1.265 µM) of 1.16 and a relative viability (NCI-H2347; first compound 4 µM) of 0.897. It also gave a relative viability (NCI-H460; first compound 0.04 µM) of 0.955, a relative viability (NCI-H460; first compound 0.1265 µM) of 1.17 and a relative viability (NCI-H460; first compound 0.4 µM) of 1.09. For the same molecule, the relative viability (NCI-H460; first compound 1.265 µM) was 1.04, the relative viability (NCI-H460; first compound 4 µM) was 1.28 and the relative viability (NCI-H650; first compound 0.04 µM) was 0.844. It also gave a relative viability (NCI-H650; first compound 0.1265 µM) of 0.767, a relative viability (NCI-H650; first compound 0.4 µM) of 0.711 and a relative viability (NCI-H650; first compound 1.265 µM) of 0.815. It also gave a relative viability (NCI-H650; first compound 4 µM) of 0.381, a relative viability (NCI-H838; first compound 0.04 µM) of 0.818 and a relative viability (NCI-H838; first compound 0.1265 µM) of 0.645. The relative viability (NCI-H838; first compound 0.4 µM) was 0.759, the relative viability (NCI-H838; first compound 1.265 µM) was 0.702 and the relative viability (NCI-H838; first compound 4 µM) was 0.333. It also gave a relative viability (PC-14; first compound 0.04 µM) of 0.837, a relative viability (PC-14; first compound 0.1265 µM) of 0.969 and a relative viability (PC-14; first compound 0.4 µM) of 0.864. The relative viability (PC-14; first compound 1.265 µM) was 0.883, the relative viability (PC-14; first compound 4 µM) was 0.316 and the relative viability (SW 1573; first compound 0.04 µM) was 1.34. It also gave a relative viability (SW 1573; first compound 0.1265 µM) of 1.08, a relative viability (SW 1573; first compound 0.4 µM) of 0.997 and a relative viability (SW 1573; first compound 1.265 µM) of 0.978. It also gave a relative viability (SW 1573; first compound 4 µM) of 0.821, a relative viability (UMC-11; first compound 0.04 µM) of 0.769 and a relative viability (UMC-11; first compound 0.1265 µM) of 0.82. The relative viability (UMC-11; first compound 0.4 µM) was 0.642, the relative viability (UMC-11; first compound 1.265 µM) was 0.837 and the relative viability (UMC-11; first compound 4 µM) was 0.494.
